Assay results from patent publication US20100022600A1, “METHODS AND COMPOSITIONS FOR TREATING CENTRAL NERVOUS SYSTEM TUMORS” (priority 2006, published 2010).

What was measured:
human glioma cells A172 = assay: MTT viability assay, human A172 glioma cells; assay type: cell-based; details: 30 μM pio; 3, 5 and 7 d
Procedure: Rat C6 glioma cells were grown in DMEM and human glioma cells (U87, A172) in RPMI, supplemented with 10% (v/v) fetal calf serum, 100 U/mL penicillin and 100 U/mL streptomycin in a 5% CO2 atmosphere. Primary astrocyte cultures were prepared as described previously (J Neurosci 1998; 18: 4451-60) and grown in DMEM, supplemented with 2.5% (v/v) fetal calf serum, 100 U/mL penicillin and 100 U/mL streptomycin in a 5% CO2 atmosphere. […] Experiments were performed in triplicate.

Bax = assay: Western blot of Bax in whole-hemisphere lysates, C6 rat glioma model; assay type: in vivo
Procedure: (§1) For western-blot analysis, tumor-containing hemispheres were homogenized in Tris-HCl [50 mM Tris-HCl pH8, 120 mM NaCl, 5 mM EDTA, 0.5% (v/v) NP-40, […] phenylmethylsulfonyl fluoride (PMSF)] and sonicated. Homogenates were collected by centrifugation (15 min 11000 g. 4° C.) and protein concentration in the supernatant was determined using the Bio-Rad Protein Assay (Biorad, Munich, Germany). Lysates (20-40 μg) were separated on a 7% (w/v) sodium dodecyl sulfate (SDS)-polyacrylamide gel under reducing conditions and transferred to a PVDF membrane (Millipore, Bedford, Mass., USA). Non-specific binding was blocked by incubation with 5% (w/v) skimmed milk in TBS for 2 h. Following incubation with the primary antibody overnight at 4° C. [rabbit anti-BAX 1:1000, rabbit anti-cleaved caspase-3 1:1000, mouse […] 1:1000, goat anti-MMP-9 1:1000 in TBS containing 0.1% (v/v) Tween 20] membranes were washed three times in TBS/Tween for 5 min and subsequently incubated for 120 min in TBS/Tween containing secondary peroxidase-conjugated antibody at room temperature (anti-rabbit 1:1000, anti-mouse 1:1000; anti-goat 1:1000 respectively). Signals were visualized by chemoluminescence (Pierce, Rockford, Ill., USA) and band intensities were quantified with NIH Image 1.62 software (Bethesda, Md., USA).

C6 glioma tumor cells = assay: BrdU incorporation in vivo; design: species or system rat; details: 14 d
Procedure: At thirteen days of treatment animals were intraperitoneally injected with 300 mg/kg of 5-bromodeoxyuridine (BrdU; Sigma, St. Louis, Mo.), a thymidine analog that incorporates into the DNA of dividing cells during S phase and can be detected immunohistochemically. Twenty-four hours later, these animals were anesthetized and perfused with phosphate-buffered saline (PBS). Brains were dissected, frozen, cut and immunostained in the following manner: Sections were fixed in 4% paraformaldehyde, washed in PBS, and incubated in 2 N HCl for 10 min at room temperature. Sections were again washed in PBS and incubated in BrdU primary antibody (rat monoclonal 1:100, Abcam, Cambridge, UK) in PBS containing 5% normal goat serum overnight at 4 C. After washing with PBS, sections were incubated in rhodamine-labeled anti-rat secondary antibody (1:100, Jackson, West Grove, Pa., USA) in PBS containing 5% normal goat serum for 1 h at room temperature. The number of dividing cells present in the tumor of these BrdU-stained sections was counted and compared to total amount of tumor cells stained with DAPI.

C6 glioma cells = assay: Boyden chamber assay, C6 cell migration; assay type: cell-based, rat
Procedure: C6 cell migration in the presence or absence of pio was assessed using a Boyden chamber (AP48, NeuroProbe, Gaithersburg, Md., USA) with an 8 μm polycarbonate PVPF-filter (Osmonics, Minnetonka, Minn., USA). Cells were suspended in DMEM containing 2.5% fetal calf serum and pio at 30 μM or vehicle (DMSO). C6 glioma cells were pretreated for 24 h in the presence or absence of 30 μM pio. Cells (5×10^3 in 50 μl pio/medium or vehicle/medium) were then plated in the wells of the upper compartment of the chamber (6 well/condition), and the wells of the lower compartment were filled with DMEM. Incubation was performed at 37° C. in 5% CO2 for 4 h. After incubation, cells on the upper surface of the filter, which had not migrated, were gently scraped off, and the filters were then fixed in methanol and subsequently stained with DAPI (1:500 in PBS; Sigma, St. Louis, Mo., USA). The number of cells which migrated to the lower surface of the filter, was counted using public domain software NIH Image 1.62 (Bethesda, Md., USA). Total number of migrating cells under pio treated and vehicle treated condition were compared statistically. Experiments were performed in duplicate.

MMP-9 = MMP-9 expression in vivo (western blot, immunohistochemistry); design: species or system rat
Procedure: as §1, with “Md., USA). Frozen brain sections were first blocked with 5% normal goat serum or normal horse serum in PBS and subsequently incubated with rabbit anti-Ki-67 antibody (1:200 dilution), mouse anti-CS-56 (1:100 dilution), goat anti-MMP-9 (1:100 dilution) or rabbit anti-cleaved caspase-3 antibody (1:200 dilution) at 4° C. overnight. Sections were washed extensively with PBS before incubation with secondary antibodies. Incubation was carried at room temperature for 1 h. After washing with PBS three times, stained slides were mounted with PBS/glycerol (1:1) and viewed under a fluorescent microscope (Leica, Germany).” for “Md., USA).”

SMILES: CCc1ccc(CCOc2ccc(CC3SC(=O)NC3=O)cc2)nc1 (centres unmarked) [pioglitazone, 5-[4-[2-(5-ethylpyridin-2-yl)ethoxyl]benzyl]thiazolidine-2,4-dione]
- cellular viability, effect in words (human glioma cells A172): significantly reduced cellular viability
- Bax-protein levels versus vehicle (densitometry), in words (Bax; 3, 6, 9 and 14 d): significant difference
- induction of Bax protein (densitometry) (Bax; 6 d of pio treatment): 1.66 fold
- upregulation of proapoptotic proteins (Bax; after 21 days of treatment (data not shown)): not associated with an upregulation of proapoptotic proteins
- BrdU-incorporation (C6 glioma tumor cells): reduced
- percentage of BrdU positive cells (C6 glioma tumor cells): significantly lower
- invasiveness of C6 cells (migrated cells) (C6 glioma cells; pio 30 μM during the Boyden chamber incubation, 4 h): reduced the invasiveness of C6 cells significantly
- inhibition of invasiveness after pretreatment (C6 glioma cells; pretreatment of C6 cells for 24 h with 30 μM pio): further increased inhibition
- MMP-9 positive staining (immunoreactivity) (MMP-9; tumor margins and surrounding healthy brain tissue): reduced MMP-9 positive staining
- MMP-9 expression (western blot) (MMP-9; whole-hemisphere lysates): almost completely suppressed
- reduction of MMP-9 expression (densitometry) (MMP-9; whole-hemisphere lysates): 81%
